The record followed here is publication PMC7720599, “Rhenium N-heterocyclic carbene complexes block growth of aggressive cancers by inhibiting FGFR- and SRC-mediated signalling” (Journal of Experimental & Clinical Cancer Research : CR, 2020).

This series deals with zebrafish embryos. In words: Zebrafish embryo teratogenicity. The class given is in vivo. The note with it: treatment from 2hpf, images at 24hpf. Here is the method: Embryos were observed daily at 24 h intervals and toxicity scores (hatching and mortality) were recorded until 120hpf. For heart rate assessments, embryos were anesthetized with tricaine (ethyl 3-aminobenzoate methanesulfonate) at 48hpf and counted under the stereomicroscope for 1min. To assess JVG045 teratogenicity compared to BGJ398, embryos were treated with the compounds starting from 2hpf and results observed at 24hpf. Compounds were prepared in DMSO and diluted to the final concentration in E2 embryo medium. DMSO was used as negative control.

SMILES strings stand for the structures.

Consider `CCN1CCN(c2ccc(Nc3cc(N(C)C(=O)Nc4c(Cl)c(OC)cc(OC)c4Cl)ncn3)cc2)CC1` [BGJ398, 3-(2,6-Dichloro-3,5-dimethoxy-phenyl)-1-{6-[4-(4-ethyl-piperazin-1-yl)-phenylamino]-pyrimidin-4-yl}-1-methyl-urea], for which the “concentration at which developmental defects start” value is 500 to 1000 nM.
